How the values were obtained:
Assay type in all cases: functional
IGROV-1 = assay: Growth inhibition of human IGROV1 cells at 10 uM after 48 hrs by sulforhodamine B assay relative to control; conditions: IGROV-1, 48 h, read-out: GI
M14 = assay: Growth inhibition of human M14 cells at 10 uM after 48 hrs by sulforhodamine B assay relative to control; conditions: M14, 48 h, read-out: GI
SK-MEL-2 = assay: Growth inhibition of human SK-MEL-2 cells at 10 uM after 48 hrs by sulforhodamine B assay relative to control; conditions: SK-MEL-2, 48 h, read-out: GI
OVCAR-8 = assay: Growth inhibition of human OVCAR8 cells at 10 uM after 48 hrs by sulforhodamine B assay relative to control; conditions: OVCAR-8, 48 h, read-out: GI
RXF 393 = assay: Growth inhibition of human RXF393 cells at 10 uM after 48 hrs by sulforhodamine B assay relative to control; conditions: RXF 393, 48 h, read-out: GI

Question: What does the source list for `Cc1ccc(S(=O)(=O)N2C(=O)CC(=O)N(c3ccc(Cl)cc3)C2=O)cc1`?
Answer: inhibition of growth at 10 µM (IGROV-1): 65.6%; inhibition of growth at 10 µM (M14): -7.35%; inhibition of growth at 10 µM (SK-MEL-2): 73.9%; inhibition of growth at 10 µM (OVCAR-8): 54.1%

Question: With `O=C1N/C(=C\c2ccc(Cl)cc2)C(=O)N1S(=O)(=O)c1ccc(Cl)cc1` as the compound, how does the inhibition of growth at 10 µM (IGROV-1) read?
Answer: 81%

Question: What about the inhibition of growth at 10 µM (M14) of the same compound?
Answer: -20.1%

Question: What about the inhibition of growth at 10 µM (RXF 393) of the same compound?
Answer: 76.2%

Question: What about the inhibition of growth at 10 µM (SK-MEL-2) of the same compound?
Answer: 17.6%

Question: And the inhibition of growth at 10 µM (OVCAR-8)?
Answer: 4.01%

Question: Which results are given for `COc1ccc(/C=C2\NC(=O)N(S(=O)(=O)c3ccccc3)C2=O)cc1`?
Answer: inhibition of growth at 10 µM (IGROV-1): 115%; inhibition of growth at 10 µM (RXF 393): 96.5%; inhibition of growth at 10 µM (SK-MEL-2): 11.6%; inhibition of growth at 10 µM (OVCAR-8): 5.23%

Question: What does the source list for `COc1ccc(/C=C2\NC(=O)N(S(=O)(=O)c3ccc(Cl)cc3)C2=O)cc1`?
Answer: inhibition of growth at 10 µM (IGROV-1): -1.97%; inhibition of growth at 10 µM (RXF 393): 84.1%; inhibition of growth at 10 µM (SK-MEL-2): 8.98%; inhibition of growth at 10 µM (OVCAR-8): -1.23%

Question: `O=c1c2ccccc2n(S(=O)(=O)c2ccc(Cl)cc2)c(=O)n1-c1ccccc1` was tested. Which inhibition of growth at 10 µM (IGROV-1) did it give?
Answer: 91.4%

Question: What about the inhibition of growth at 10 µM (M14) of the same compound?
Answer: 17.4%

Question: What about the inhibition of growth at 10 µM (SK-MEL-2) of the same compound?
Answer: 79.3%

Question: What about the inhibition of growth at 10 µM (OVCAR-8) of the same compound?
Answer: 40.9%

Question: Which inhibition of growth at 10 µM (IGROV-1) does the source give for `O=C1CC(=O)N(S(=O)(=O)c2ccc(Cl)cc2)C(=O)N1c1ccccc1` here?
Answer: 34.1%

Question: And the inhibition of growth at 10 µM (M14)?
Answer: 8.19%

Question: What about the inhibition of growth at 10 µM (SK-MEL-2) of the same compound?
Answer: 65.1%

Question: What about the inhibition of growth at 10 µM (OVCAR-8) of the same compound?
Answer: 58.9%

Question: For `O=C1N/C(=C\c2ccccc2)C(=O)N1S(=O)(=O)c1ccc(Cl)cc1`, which inhibition of growth at 10 µM (IGROV-1) is on record?
Answer: -9.05%

Question: And the inhibition of growth at 10 µM (RXF 393)?
Answer: 0.92%

Question: What about the inhibition of growth at 10 µM (SK-MEL-2) of the same compound?
Answer: 11.7%

Question: What about the inhibition of growth at 10 µM (OVCAR-8) of the same compound?
Answer: 3.88%

Question: What does the source list for `O=C1N/C(=C\c2ccc(Cl)cc2)C(=O)N1S(=O)(=O)c1ccccc1`?
Answer: inhibition of growth at 10 µM (IGROV-1): 1.13%; inhibition of growth at 10 µM (RXF 393): 7.42%; inhibition of growth at 10 µM (SK-MEL-2): 19.9%; inhibition of growth at 10 µM (OVCAR-8): 6.79%

Question: With `CN(C)c1ccc(/C=C2\NC(=O)N(S(=O)(=O)c3ccccc3)C2=O)cc1` as the compound, how does the inhibition of growth at 10 µM (IGROV-1) read?
Answer: 107%

Question: What about the inhibition of growth at 10 µM (M14) of the same compound?
Answer: -2.88%

Question: What about the inhibition of growth at 10 µM (RXF 393) of the same compound?
Answer: 80.3%

Question: And the inhibition of growth at 10 µM (SK-MEL-2)?
Answer: 3.98%

Question: What about the inhibition of growth at 10 µM (OVCAR-8) of the same compound?
Answer: 1.17%

Question: For `COc1ccc(-n2c(=O)c3ccccc3n(S(=O)(=O)c3ccccc3)c2=O)cc1`, which inhibition of growth at 10 µM (IGROV-1) is on record?
Answer: 63.2%

Question: And the inhibition of growth at 10 µM (M14)?
Answer: 56.5%

Question: And the inhibition of growth at 10 µM (RXF 393)?
Answer: 43%

Question: What about the inhibition of growth at 10 µM (SK-MEL-2) of the same compound?
Answer: -43.2%

Question: And the inhibition of growth at 10 µM (OVCAR-8)?
Answer: 26%

Question: For `O=c1c2ccccc2n(S(=O)(=O)c2ccccc2)c(=O)n1-c1ccccc1`, which inhibition of growth at 10 µM (IGROV-1) is on record?
Answer: 86.8%

Question: And the inhibition of growth at 10 µM (M14)?
Answer: 1.02%

Question: And the inhibition of growth at 10 µM (SK-MEL-2)?
Answer: 70.4%

Question: What about the inhibition of growth at 10 µM (OVCAR-8) of the same compound?
Answer: 33.2%

Question: With `COc1ccc(N2C(=O)CC(=O)N(S(=O)(=O)c3ccc(Cl)cc3)C2=O)cc1` as the compound, how does the inhibition of growth at 10 µM (IGROV-1) read?
Answer: 76.5%

Question: And the inhibition of growth at 10 µM (M14)?
Answer: -3.04%

Question: What about the inhibition of growth at 10 µM (SK-MEL-2) of the same compound?
Answer: 61.1%

Question: And the inhibition of growth at 10 µM (OVCAR-8)?
Answer: 42.4%

From ChEMBL document CHEMBL1165899, “Synthesis and antitumor evaluation of novel cyclic arylsulfonylureas: ADME-T and pharmacophore prediction” (2010)
